Data on 19 molecules can be found in US20210300940A1 (Merck Patent GmbH, priority 2018, published 2021).

One experiment concerns the target T1, TLR7 (Homo sapiens, UniProt Q9NYK1).
T1 construct: expressed in transfected cells; host or cells: HEK/293 cells carrying TLR7 and an NF-kB luciferase reporter
T1 sequence (Q9NYK1 27-1049): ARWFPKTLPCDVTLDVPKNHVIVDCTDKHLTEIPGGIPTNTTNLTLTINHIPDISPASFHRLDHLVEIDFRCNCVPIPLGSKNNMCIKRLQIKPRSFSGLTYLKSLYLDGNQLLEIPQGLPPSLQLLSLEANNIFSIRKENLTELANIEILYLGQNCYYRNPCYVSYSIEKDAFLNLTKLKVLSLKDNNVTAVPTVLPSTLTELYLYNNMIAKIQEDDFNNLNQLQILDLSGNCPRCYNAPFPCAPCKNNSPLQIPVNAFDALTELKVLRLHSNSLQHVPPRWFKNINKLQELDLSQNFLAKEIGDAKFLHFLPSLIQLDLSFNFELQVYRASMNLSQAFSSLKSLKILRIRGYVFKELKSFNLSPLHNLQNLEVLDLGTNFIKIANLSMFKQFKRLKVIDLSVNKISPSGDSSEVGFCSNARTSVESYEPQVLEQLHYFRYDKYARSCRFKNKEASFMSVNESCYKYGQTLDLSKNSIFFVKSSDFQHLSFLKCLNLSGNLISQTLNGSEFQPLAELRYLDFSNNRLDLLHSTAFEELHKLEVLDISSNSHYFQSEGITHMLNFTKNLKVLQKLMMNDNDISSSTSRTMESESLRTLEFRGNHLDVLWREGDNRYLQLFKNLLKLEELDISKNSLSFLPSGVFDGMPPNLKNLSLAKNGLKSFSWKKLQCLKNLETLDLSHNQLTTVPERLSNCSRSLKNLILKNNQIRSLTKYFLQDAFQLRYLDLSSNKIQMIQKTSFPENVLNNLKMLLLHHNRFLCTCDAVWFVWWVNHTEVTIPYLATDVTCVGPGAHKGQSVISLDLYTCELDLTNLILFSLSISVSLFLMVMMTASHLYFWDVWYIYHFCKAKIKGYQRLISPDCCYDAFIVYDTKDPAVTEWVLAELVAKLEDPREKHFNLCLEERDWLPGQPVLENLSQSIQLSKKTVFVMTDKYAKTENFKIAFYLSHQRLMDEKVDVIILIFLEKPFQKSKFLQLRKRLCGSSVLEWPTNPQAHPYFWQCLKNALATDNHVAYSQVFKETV
In words: HEK/293 TLR7 Cell Assay. The class given is cell-based. To be noted: TLR7/NFKb HEK cells, R848 agonist 10 uM final concentration, Steady-Glo readout; read-out: TLR7 potency. The method, boiled down:
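Compounds added to HEK cells expressing TLR7 with an NFκB reporter 30 min ahead of 10 uM R848 challenge; luciferase signal (Steady-Glo) measured after 5 h, cells having been seeded 24 h earlier at 5000 per well.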

A further experiment deals with T2, TLR8 (Homo sapiens, UniProt Q9NR97).
T2 construct: expressed in transfected cells; host or cells: HEK/293 reporter cells (NF-kB luciferase)
T2 sequence (Q9NR97 27-1041): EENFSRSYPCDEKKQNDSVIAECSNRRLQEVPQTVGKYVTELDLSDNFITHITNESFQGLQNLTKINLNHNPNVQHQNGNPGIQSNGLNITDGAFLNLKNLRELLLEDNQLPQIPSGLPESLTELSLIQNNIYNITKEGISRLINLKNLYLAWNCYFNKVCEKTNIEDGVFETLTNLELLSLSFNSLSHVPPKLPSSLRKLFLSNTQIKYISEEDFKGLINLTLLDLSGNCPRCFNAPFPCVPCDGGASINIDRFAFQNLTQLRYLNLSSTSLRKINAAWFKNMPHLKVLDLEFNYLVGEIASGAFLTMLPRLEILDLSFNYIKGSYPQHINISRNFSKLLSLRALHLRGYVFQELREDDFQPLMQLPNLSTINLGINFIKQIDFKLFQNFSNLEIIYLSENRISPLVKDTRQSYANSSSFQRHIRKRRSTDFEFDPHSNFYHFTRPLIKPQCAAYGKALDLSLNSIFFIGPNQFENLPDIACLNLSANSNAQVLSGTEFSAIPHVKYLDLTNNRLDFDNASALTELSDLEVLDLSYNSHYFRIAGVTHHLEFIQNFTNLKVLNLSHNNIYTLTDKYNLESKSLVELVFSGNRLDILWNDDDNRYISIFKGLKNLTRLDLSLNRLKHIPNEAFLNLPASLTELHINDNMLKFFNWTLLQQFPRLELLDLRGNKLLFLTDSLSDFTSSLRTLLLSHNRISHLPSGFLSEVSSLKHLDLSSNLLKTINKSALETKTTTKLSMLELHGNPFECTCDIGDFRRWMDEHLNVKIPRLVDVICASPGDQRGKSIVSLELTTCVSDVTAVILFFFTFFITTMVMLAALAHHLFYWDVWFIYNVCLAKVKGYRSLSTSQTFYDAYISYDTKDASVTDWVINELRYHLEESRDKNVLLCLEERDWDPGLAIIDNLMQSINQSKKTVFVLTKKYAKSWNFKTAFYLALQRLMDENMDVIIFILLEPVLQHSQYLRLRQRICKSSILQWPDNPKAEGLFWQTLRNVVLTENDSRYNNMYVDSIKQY
In words: HEK/293 TLR8 Cell Assay. It is filed as cell-based. To be noted: HEK cells, R848 agonist 30 uM final concentration, Steady-Glo readout; read-out: TLR8 potency.

Each structure is given as a SMILES string. Some results are limits rather than exact numbers.

With `C[C@@H]1CN(c2ccc(C(F)(F)F)c3ncccc23)C[C@H](CN2CCC(N3CCOCC3)CC2)O1` [Example 329, 5-[(2R,6S)-2-Methyl-6-(4-morpholin-4-yl-piperidin-1-ylmethyl)-morpholin-4-yl]-8-trifluoromethyl-quinoline], the IC50 at TLR7 is 75 to 150 nM; at TLR8, less than 75 nM.

As to `C[C@@H]1CN(c2ccc(C(F)(F)F)c3ncccc23)C[C@H](CN2CCN(C)CC2)O1` [Example 330, 5-[(2R,6S)-2-Methyl-6-(4-methyl-piperazin-1-ylmethyl)-morpholin-4-yl]-8-trifluoromethyl-quinoline], the IC50 on TLR7 and on TLR8 was less than 75 nM in each case.

With `C[C@@H]1CN(c2ccc(C(F)(F)F)c3ncccc23)C[C@H](CN2CCC(C(C)(C)O)C2)O1` (stereo partly drawn) [Example 331, 2-{1-[(2S,6R)-6-Methyl-4-(8-trifluoromethyl-quinolin-5-yl)-morpholin-2-ylmethyl]-pyrrolidin-3-yl}-propan-2-ol], the IC50 was less than 75 nM at TLR7 and 75 to 150 nM on TLR8.

For `C[C@@H]1CN(c2cnc(C#N)c3ncccc23)C[C@H](CNC(=O)C2(F)CCNC2)O1` (stereo partly drawn) [Example 332, N-{[(2S,6R)-4-(8-cyano-1,7-naphthyridin-5-yl)-6-methylmorpholin-2-yl]methyl}-3-fluoropyrrolidine-3-carboxamide], the figures for the IC50 at TLR7 and on TLR8 were 75 to 150 nM and less than 75 nM, respectively.

Consider `C[C@@H]1CN(c2cnc(C#N)c3ncccc23)C[C@H](CNC(=O)C2(F)CCCNC2)O1` (stereo partly drawn) [Example 333, N-{[(2S,6R)-4-(8-cyano-1,7-naphthyridin-5-yl)-6-methylmorpholin-2-yl]methyl}-3-fluoropiperidine-3-carboxamide], for which the values for the IC50 on TLR7 and at TLR8 were 75 to 150 nM and less than 75 nM, respectively.

As to `Cc1ccc(N2C[C@H](CNC(=O)CC3CCN(C)CC3)O[C@H](C)C2)c2cccnc12` [Example 342, N-{[(2S,6R)-6-methyl-4-(8-methylquinolin-5-yl)morpholin-2-yl]methyl}-2-(1-methylpiperidin-4-yl)acetamide], the IC50 at TLR7 and at TLR8 was less than 75 nM throughout.

Turning to `C[C@@H]1CN(c2ccc(C#N)c3ncncc23)C[C@H](CNC(=O)C2(F)CCNC2)O1` (stereo partly drawn) [Example 343, N-{[(2S,6R)-4-(8-cyanoquinazolin-5-yl)-6-methylmorpholin-2-yl]methyl}-3-fluoropyrrolidine-3-carboxamide], the IC50 on TLR7 and at TLR8 was less than 75 nM in each case.

For `C[C@@H]1CN(c2ccc(C#N)c3ncncc23)C[C@H](C(=O)NCC2(F)CCN(C)CC2)O1` [Example 346, (2R,6R)-4-(8-Cyano-quinazolin-5-yl)-6-methyl-morpholine-2-carboxylic acid (4-fluoro-1-methyl-piperidin-4-ylmethyl)-amide], the IC50 at TLR7 and at TLR8 was less than 75 nM throughout.

As to `C[C@@H]1CN(c2ccc(C#N)c3ncncc23)C[C@H](C(=O)NC2CCN(C)C3(CCC3)C2)O1` (stereo partly drawn) [Example 347, (2R,6R)-4-(8-Cyano-quinazolin-5-yl)-6-methyl-morpholine-2-carboxylic acid (5-methyl-5-aza-spiro[3.5]non-8-yl)-amide], the IC50 on TLR7 and at TLR8 was less than 75 nM throughout.

With `C[C@@H]1CN(c2cnc(C#N)c3ncccc23)C[C@H](C(=O)NCC2(F)CCN(C)CC2)O1` [Example 348, (2R,6R)-4-(8-Cyano-[1,7]naphthyridin-5-yl)-6-methyl-morpholine-2-carboxylic acid (4-fluoro-1-methyl-piperidin-4-ylmethyl)-amide], the values for the IC50 at TLR7 and on TLR8 were less than 75 nM and greater than 150 nM, respectively.

Regarding `C[C@@H]1CN(c2cnc(C#N)c3ncccc23)C[C@H](Cn2cc(C(=O)O)cn2)O1` [Example 365, 1-[(2R,6R)-4-(8-Cyano-[1,7]naphthyridin-5-yl)-6-methyl-morpholin-2-ylmethyl]-1H-pyrazole-4-carboxylic acid], the IC50 at TLR7 and on TLR8 was less than 75 nM each time.

As to `C[C@@H]1CN(c2cnc(C#N)c3ncccc23)C[C@H](CN2CCNCC2)O1` [Example 366, 5-((2R,6S)-2-Methyl-6-piperazin-1-ylmethyl-morpholin-4-yl)-[1,7]naphthyridine-8-carbonitrile], the IC50 on TLR7 and at TLR8 was less than 75 nM each time.

For `C[C@@H]1CN(c2cnc(C#N)c3ncccc23)C[C@H](CN2CCC(N3CCOCC3)CC2)O1` [Example 367, 5-[(2R,6S)-2-Methyl-6-(4-morpholin-4-yl-piperidin-1-ylmethyl)-morpholin-4-yl]-[1,7]naphthyridine-8-carbonitrile], the IC50 is 75 to 150 nM on TLR7 and less than 75 nM at TLR8.

Consider `C[C@@H]1CN(c2cnc(C#N)c3ncccc23)C[C@H](CN2CCN(C)CC2)O1` [Example 368, 5-[(2R,6S)-2-Methyl-6-(4-methyl-piperazin-1-ylmethyl)-morpholin-4-yl]-naphthyridine-8-carbonitrile], for which the IC50 on TLR7 and at TLR8 was less than 75 nM throughout.

For `C[C@@H]1CN(c2cnc(C#N)c3ncccc23)C[C@H](CN2CCC(N)C(F)(F)C2)O1` (stereo partly drawn) [Example 369, 5-[(2S,6R)-2-(4-Amino-3,3-difluoro-piperidin-1-ylmethyl)-6-methyl-morpholin-4-yl]-[1,7]naphthyridine-8-carbonitrile], the IC50 at TLR7 and on TLR8 was less than 75 nM in each case.

In the case of `C[C@@H]1CN(c2cnc(C#N)c3ncccc23)C[C@H](CN2CCC(F)(CN)CC2)O1` [Example 370, 5-[(2S,6R)-2-(4-Aminomethyl-4-fluoro-piperidin-1-ylmethyl)-6-methyl-morpholin-4-yl]-[1,7]naphthyridine-8-carbonitrile], the IC50 at TLR7 and on TLR8 was less than 75 nM in each case.

For `CCN1CCN(C[C@H]2CN(c3cnc(C#N)c4ncccc34)C[C@@H](C)O2)CC1` [Example 371, 5-[(2S,6R)-2-(4-Ethyl-piperazin-1-ylmethyl)-6-methyl-morpholin-4-yl]-naphthyridine-8-carbonitrile], the values for the IC50 on TLR7 and at TLR8 were greater than 150 nM and less than 75 nM, respectively.

Regarding `C[C@@H]1CN(c2cnc(C#N)c3ncccc23)C[C@H](CN2CCN(CCO)CC2)O1` [Example 372, 5-{(2S,6R)-2-[4-(2-Hydroxy-ethyl)-piperazin-1-ylmethyl]-6-methyl-morpholin-4-yl}-[1,7]naphthyridine-8-carbonitrile], the IC50 was 75 to 150 nM on TLR7 and less than 75 nM at TLR8.

Consider `C[C@@H]1CN(c2cnc(C#N)c3ncccc23)C[C@H](CNCC(O)CF)O1` (stereo partly drawn) [Example 373, 5-{(2S,6R)-2-[(3-Fluoro-2-hydroxy-propylamino)-methyl]-6-methyl-morpholin-4-yl}-[1,7]naphthyridine-8-carbonitrile], for which the IC50 on TLR7 and on TLR8 was greater than 150 nM each time.
